According to ChEMBL document CHEMBL1201862, “PubChem BioAssay data set” (2004):
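Step 1: Grow cells in 96-well plates. Step 2: Expose to compound for 48 hours at 5 concentrations. Step 3: Interpolate endpoints linearly; if unreached, use highest concentration. GI50 = concentration required for 50% inhibition of growth.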 Active and inactive are the calls of the source. Cut-off read from the data, not from the text of the source: active = GI50 up to about 1.1 µM and inactive = higher.

What was measured:
Assay in all cases: DTP human tumour cell line panel, 48 h
HCT-15 = test system: HCT-15
HOP-92 = test system: HOP-92
DU-145 = test system: DU-145
UACC-257 = test system: UACC-257
NCI-H460 = test system: NCI-H460
OVCAR-4 = test system: OVCAR-4
NCI-H23 = test system: NCI-H23
UACC-62 = test system: UACC-62
LOX IMVI = test system: LOX IMVI
NCI-H226 = test system: NCI-H226
T47D = test system: T47D
M14 = test system: M14
RPMI-8226 = test system: RPMI-8226
HOP-62 = test system: HOP-62
U-251 = test system: U-251
SF-268 = test system: SF-268
MDA-N = test system: MDA-N
OVCAR-5 = test system: OVCAR-5
OVCAR-3 = test system: OVCAR-3
SK-MEL-28 = test system: SK-MEL-28
SK-MEL-5 = test system: SK-MEL-5
HL-60 = test system: HL-60
Hs-578T = test system: Hs-578T
PC-3 = test system: PC-3
HT-29 = test system: HT-29
SK-MEL-2 = test system: SK-MEL-2
OVCAR-8 = test system: OVCAR-8
SW-620 = test system: SW-620
MDA-MB-435 = test system: MDA-MB-435
SN12C = test system: SN12C
SF-539 = test system: SF-539
SR = test system: SR
KM12 = test system: KM12
COLO 205 = test system: COLO 205
HCC 2998 = test system: HCC 2998
HCT-116 = test system: HCT-116
MOLT-4 = test system: MOLT-4
786-0 = test system: 786-0
NCI-H522 = test system: NCI-H522
NCI/ADR-RES = test system: NCI/ADR-RES
A498 = test system: A498
CAKI-1 = test system: CAKI-1
TK-10 = test system: TK-10
K562 = test system: K562
ACHN = test system: ACHN
BT-549 = test system: BT-549
Malme-3M = test system: Malme-3M
CCRF-CEM = test system: CCRF-CEM
MCF7 = test system: MCF7
SNB-19 = test system: SNB-19
A549 = test system: A549
SF-295 = test system: SF-295
MDA-MB-231 = test system: MDA-MB-231
UO-31 = test system: UO-31
EKVX = test system: EKVX
SK-OV-3 = test system: SK-OV-3
RXF 393 = test system: RXF 393
IGROV-1 = test system: IGROV-1
SNB-75 = test system: SNB-75

**Q.** For O=C1CSC(c2ccc([N+](=O)[O-])cc2)N1c1ccc(-c2ccc(-n3c(-c4ccccc4)nc4ccccc4c3=O)cc2)cc1 (stereo unspecified), which GI50 (HCT-15) is on record?
**A.** 33.7 µM

**Q.** What about the GI50 (HOP-92) of the same compound?
**A.** 41.7 µM (inactive)

**Q.** And the GI50 (DU-145)?
**A.** > 100 µM (inactive)

**Q.** And the GI50 (UACC-257)?
**A.** > 100 µM (inactive)

**Q.** And the GI50 (NCI-H460)?
**A.** 38.4 µM (inactive)

**Q.** What about the GI50 (OVCAR-4) of the same compound?
**A.** 34.2 µM (inactive)

**Q.** And the GI50 (NCI-H23)?
**A.** > 100 µM (inactive)

**Q.** And the GI50 (UACC-62)?
**A.** 35.1 µM (inactive)

**Q.** And the GI50 (LOX IMVI)?
**A.** 52.5 µM (inactive)

**Q.** What about the GI50 (NCI-H226) of the same compound?
**A.** 56.1 µM (inactive)

**Q.** And the GI50 (T47D)?
**A.** 21.5 µM (inactive)

**Q.** What about the GI50 (M14) of the same compound?
**A.** 59 µM (inactive)

**Q.** What about the GI50 (RPMI-8226) of the same compound?
**A.** 32.5 µM (inactive)

**Q.** And the GI50 (HOP-62)?
**A.** > 100 µM (inactive)

**Q.** What about the GI50 (U-251) of the same compound?
**A.** 83 µM (inactive)

**Q.** And the GI50 (SF-268)?
**A.** > 100 µM (inactive)

**Q.** And the GI50 (MDA-N)?
**A.** 75 µM (inactive)

**Q.** What about the GI50 (OVCAR-5) of the same compound?
**A.** > 100 µM (inactive)

**Q.** And the GI50 (OVCAR-3)?
**A.** 53.1 µM (inactive)

**Q.** And the GI50 (SK-MEL-28)?
**A.** 81.3 µM (inactive)

**Q.** And the GI50 (SK-MEL-5)?
**A.** 17.3 µM (inactive)

**Q.** And the GI50 (HL-60)?
**A.** 26.5 µM (inactive)

**Q.** What about the GI50 (Hs-578T) of the same compound?
**A.** > 100 µM (inactive)

**Q.** What about the GI50 (PC-3) of the same compound?
**A.** 36.4 µM (inactive)

**Q.** And the GI50 (HT-29)?
**A.** 49.7 µM (inactive)

**Q.** What about the GI50 (SK-MEL-2) of the same compound?
**A.** 44.2 µM (inactive)

**Q.** And the GI50 (OVCAR-8)?
**A.** 46.9 µM (inactive)

**Q.** What about the GI50 (SW-620) of the same compound?
**A.** > 100 µM (inactive)

**Q.** What about the GI50 (MDA-MB-435) of the same compound?
**A.** 59.7 µM (inactive)

**Q.** And the GI50 (SN12C)?
**A.** > 100 µM (inactive)

**Q.** What about the GI50 (SF-539) of the same compound?
**A.** > 100 µM (inactive)

**Q.** And the GI50 (SR)?
**A.** 18.7 µM (inactive)

**Q.** What about the GI50 (KM12) of the same compound?
**A.** 21.4 µM (inactive)

**Q.** And the GI50 (COLO 205)?
**A.** 43.5 µM (inactive)

**Q.** And the GI50 (HCC 2998)?
**A.** 35.7 µM (inactive)

**Q.** And the GI50 (HCT-116)?
**A.** 60.5 µM (inactive)

**Q.** And the GI50 (MOLT-4)?
**A.** 20.4 µM (inactive)

**Q.** And the GI50 (786-0)?
**A.** 70.8 µM (inactive)

**Q.** What about the GI50 (NCI-H522) of the same compound?
**A.** > 100 µM (inactive)

**Q.** What about the GI50 (NCI/ADR-RES) of the same compound?
**A.** 43.9 µM (inactive)

**Q.** What about the GI50 (A498) of the same compound?
**A.** > 100 µM (inactive)

**Q.** What about the GI50 (CAKI-1) of the same compound?
**A.** > 100 µM (inactive)

**Q.** And the GI50 (TK-10)?
**A.** 66.2 µM (inactive)

**Q.** And the GI50 (K562)?
**A.** 34.4 µM (inactive)

**Q.** And the GI50 (ACHN)?
**A.** 56.5 µM (inactive)

**Q.** And the GI50 (BT-549)?
**A.** 53.3 µM (inactive)

**Q.** What about the GI50 (Malme-3M) of the same compound?
**A.** 58.1 µM (inactive)

**Q.** What about the GI50 (CCRF-CEM) of the same compound?
**A.** 25.7 µM (inactive)

**Q.** And the GI50 (MCF7)?
**A.** 33.1 µM (inactive)

**Q.** What about the GI50 (SNB-19) of the same compound?
**A.** > 100 µM (inactive)

**Q.** And the GI50 (A549)?
**A.** 57 µM (inactive)

**Q.** And the GI50 (SF-295)?
**A.** 85.3 µM (inactive)

**Q.** What about the GI50 (MDA-MB-231) of the same compound?
**A.** 49.8 µM (inactive)

**Q.** What about the GI50 (UO-31) of the same compound?
**A.** 46.8 µM (inactive)

**Q.** And the GI50 (EKVX)?
**A.** 38.5 µM (inactive)

**Q.** What about the GI50 (SK-OV-3) of the same compound?
**A.** > 100 µM (inactive)

**Q.** For OCC1OC(NC(=S)NCCC(F)(F)C(F)(F)C(F)(F)C(F)(F)C(F)(F)C(F)(F)F)C(O)C(O)C1O (stereo unspecified), which GI50 (HCT-15) is on record?
**A.** > 100 µM

**Q.** What about the GI50 (HOP-92) of the same compound?
**A.** 29.2 µM (inactive)

**Q.** And the GI50 (DU-145)?
**A.** > 100 µM (inactive)

**Q.** What about the GI50 (UACC-257) of the same compound?
**A.** 54.7 µM (inactive)

**Q.** What about the GI50 (NCI-H460) of the same compound?
**A.** > 100 µM (inactive)

**Q.** And the GI50 (OVCAR-4)?
**A.** > 100 µM (inactive)

**Q.** And the GI50 (NCI-H23)?
**A.** > 100 µM (inactive)

**Q.** And the GI50 (UACC-62)?
**A.** 67.9 µM (inactive)

**Q.** What about the GI50 (LOX IMVI) of the same compound?
**A.** 49.5 µM (inactive)

**Q.** And the GI50 (T47D)?
**A.** > 100 µM (inactive)

**Q.** What about the GI50 (M14) of the same compound?
**A.** 56.4 µM (inactive)

**Q.** What about the GI50 (RPMI-8226) of the same compound?
**A.** > 100 µM (inactive)

**Q.** And the GI50 (HOP-62)?
**A.** 71.4 µM (inactive)

**Q.** And the GI50 (U-251)?
**A.** 37.3 µM (inactive)

**Q.** What about the GI50 (SF-268) of the same compound?
**A.** > 100 µM (inactive)

**Q.** And the GI50 (MDA-N)?
**A.** > 100 µM (inactive)

**Q.** What about the GI50 (OVCAR-5) of the same compound?
**A.** > 100 µM (inactive)

**Q.** And the GI50 (OVCAR-3)?
**A.** > 100 µM (inactive)

**Q.** And the GI50 (SK-MEL-28)?
**A.** 72.9 µM (inactive)

**Q.** And the GI50 (SK-MEL-5)?
**A.** 35.6 µM (inactive)

**Q.** What about the GI50 (RXF 393) of the same compound?
**A.** 75.3 µM (inactive)

**Q.** And the GI50 (HL-60)?
**A.** > 100 µM (inactive)

**Q.** What about the GI50 (Hs-578T) of the same compound?
**A.** > 100 µM (inactive)

**Q.** What about the GI50 (PC-3) of the same compound?
**A.** 43 µM (inactive)

**Q.** What about the GI50 (HT-29) of the same compound?
**A.** > 100 µM (inactive)

**Q.** What about the GI50 (SK-MEL-2) of the same compound?
**A.** > 100 µM (inactive)

**Q.** And the GI50 (SW-620)?
**A.** > 100 µM (inactive)

**Q.** And the GI50 (MDA-MB-435)?
**A.** 58.6 µM (inactive)

**Q.** What about the GI50 (SN12C) of the same compound?
**A.** > 100 µM (inactive)

**Q.** What about the GI50 (IGROV-1) of the same compound?
**A.** 65.9 µM (inactive)

**Q.** What about the GI50 (SF-539) of the same compound?
**A.** > 100 µM (inactive)

**Q.** What about the GI50 (SNB-75) of the same compound?
**A.** > 100 µM (inactive)

**Q.** What about the GI50 (SR) of the same compound?
**A.** > 100 µM (inactive)

**Q.** And the GI50 (KM12)?
**A.** > 100 µM (inactive)

**Q.** What about the GI50 (COLO 205) of the same compound?
**A.** > 100 µM (inactive)

**Q.** And the GI50 (HCC 2998)?
**A.** > 100 µM (inactive)

**Q.** What about the GI50 (HCT-116) of the same compound?
**A.** 80.4 µM (inactive)

**Q.** And the GI50 (MOLT-4)?
**A.** 21.6 µM (inactive)

**Q.** What about the GI50 (786-0) of the same compound?
**A.** > 100 µM (inactive)

**Q.** What about the GI50 (NCI/ADR-RES) of the same compound?
**A.** > 100 µM (inactive)

**Q.** And the GI50 (A498)?
**A.** 18.5 µM (inactive)

**Q.** What about the GI50 (CAKI-1) of the same compound?
**A.** > 100 µM (inactive)

**Q.** And the GI50 (TK-10)?
**A.** > 100 µM (inactive)

**Q.** And the GI50 (K562)?
**A.** 28.2 µM (inactive)

**Q.** And the GI50 (ACHN)?
**A.** 88.1 µM (inactive)

**Q.** What about the GI50 (BT-549) of the same compound?
**A.** > 100 µM (inactive)

**Q.** What about the GI50 (Malme-3M) of the same compound?
**A.** > 100 µM (inactive)

**Q.** What about the GI50 (CCRF-CEM) of the same compound?
**A.** 38.3 µM (inactive)

**Q.** What about the GI50 (MCF7) of the same compound?
**A.** > 100 µM (inactive)

**Q.** What about the GI50 (SNB-19) of the same compound?
**A.** 69.8 µM (inactive)

**Q.** And the GI50 (A549)?
**A.** > 100 µM (inactive)

**Q.** What about the GI50 (SF-295) of the same compound?
**A.** 80.9 µM (inactive)

**Q.** What about the GI50 (MDA-MB-231) of the same compound?
**A.** > 100 µM (inactive)

**Q.** And the GI50 (UO-31)?
**A.** > 100 µM (inactive)

**Q.** And the GI50 (SK-OV-3)?
**A.** > 100 µM (inactive)
